Inconclusive results are not listed. The source made the active and inactive calls. How the calls were made is not given here.

By EC50 is commonly meant the concentration giving half of the maximal effect.

Protein RecA (Mycobacterium tuberculosis (strain ATCC 25618 / H37Rv)), sequence (P9WHJ3 whole entry, looked up): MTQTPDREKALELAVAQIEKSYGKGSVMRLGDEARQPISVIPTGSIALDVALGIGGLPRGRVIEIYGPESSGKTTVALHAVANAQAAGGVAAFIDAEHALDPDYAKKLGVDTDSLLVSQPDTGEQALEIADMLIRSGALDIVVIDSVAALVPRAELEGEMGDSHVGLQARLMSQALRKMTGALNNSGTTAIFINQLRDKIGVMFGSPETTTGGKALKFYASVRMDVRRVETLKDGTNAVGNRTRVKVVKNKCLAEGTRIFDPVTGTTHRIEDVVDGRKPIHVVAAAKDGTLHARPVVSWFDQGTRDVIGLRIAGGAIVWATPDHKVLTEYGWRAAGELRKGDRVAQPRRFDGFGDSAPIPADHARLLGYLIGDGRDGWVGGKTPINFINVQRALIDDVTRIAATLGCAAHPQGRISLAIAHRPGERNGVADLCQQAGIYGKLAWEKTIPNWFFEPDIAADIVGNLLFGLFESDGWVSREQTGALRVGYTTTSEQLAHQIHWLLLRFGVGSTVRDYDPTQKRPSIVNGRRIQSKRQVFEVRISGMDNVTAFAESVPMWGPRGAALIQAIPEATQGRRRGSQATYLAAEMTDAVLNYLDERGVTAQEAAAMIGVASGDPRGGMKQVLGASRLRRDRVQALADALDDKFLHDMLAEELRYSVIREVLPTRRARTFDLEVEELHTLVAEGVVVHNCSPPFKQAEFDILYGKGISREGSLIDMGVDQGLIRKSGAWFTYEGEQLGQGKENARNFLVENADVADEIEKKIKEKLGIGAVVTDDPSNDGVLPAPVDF

The assay concerns the target Protein RecA (Mycobacterium tuberculosis (strain ATCC 25618 / H37Rv)) (UniProt P9WHJ3). As to the kind of experiment: Inhibitors of Mycobacterium tuberculosis RecA intein splicing, fluorescence, dose retest (AID 435010). As to conditions: cell-free RecA-intein splicing.
In the case of `CC1=NN(Cc2ccccc2)C(=O)/C1=C\c1ccc(N(C)C)cc1`, the EC50 was > 38 µM (inactive). In the case of `O=C(CCCN1C(=O)/C(=C/c2ccccc2)SC1=S)Nc1ccc(O)cc1` it was > 38 µM (inactive); in that of `N[C@@H]1CCCC[C@H]1N.O=C(O)C(=O)O.[Pt]`, 32.5 µM.
